Reference: BindingDB's records for doi:10.1016/s0960-894x(98)00716-1 (Novartis Biomedical Research Institute, 1999)

Molecular target: Stromelysin-1 (MMP-3)
Test: In vitro inhibitory activity against matrix metalloprotease-3

SMILES | IC50
CCC[C@H]1CC[C@@](CS)(C(=O)N[C@@H](Cc2ccccc2)C(=O)NC)CC1 [1-Mercaptomethyl-4-propyl-cyclohexanecarboxylic acid ((S)-1-methylcarbamoyl-2-phenyl-ethyl)-amide] | > 10000 nM
CNC(=O)[C@H](Cc1ccccc1)NC(=O)C1(CS)CCCCC1 [1-Mercaptomethyl-cyclohexanecarboxylic acid ((S)-1-methylcarbamoyl-2-phenyl-ethyl)-amide] | 9200 nM
CCO[C@H]1CC[C@@](CS)(C(=O)N[C@@H](Cc2ccccc2)C(=O)NCc2ccccc2)CC1 [4-Ethoxy-1-mercaptomethyl-cyclohexanecarboxylic acid ((S)-1-benzylcarbamoyl-2-phenyl-ethyl)-amide] | 207 nM
CCO[C@H]1CC[C@@](CS)(C(=O)N[C@@H](Cc2ccccc2)C(=O)NC2CCCCC2)CC1 [4-Ethoxy-1-mercaptomethyl-cyclohexanecarboxylic acid ((S)-1-cyclohexylcarbamoyl-2-phenyl-ethyl)-amide] | 617 nM
CCO[C@H]1CC[C@@](CS)(C(=O)N[C@@H](Cc2ccccc2)C(=O)NC2CCCC2)CC1 [4-Ethoxy-1-mercaptomethyl-cyclohexanecarboxylic acid ((S)-1-cyclopentylcarbamoyl-2-phenyl-ethyl)-amide] | 666 nM
CCO[C@H]1CC[C@@](CS)(C(=O)N[C@@H](Cc2ccccc2)C(=O)NC)CC1 [4-Ethoxy-1-mercaptomethyl-cyclohexanecarboxylic acid ((S)-1-methylcarbamoyl-2-phenyl-ethyl)-amide] | 640 nM
CCO[C@H]1CC[C@@](CS)(C(=O)N[C@@H](Cc2ccccc2)C(=O)Nc2ccc(Cl)cc2)CC1 [4-Ethoxy-1-mercaptomethyl-cyclohexanecarboxylic acid [(S)-1-(4-chloro-phenylcarbamoyl)-2-phenyl-ethyl]-amide] | 113 nM
CCO[C@H]1CC[C@@](CS)(C(=O)N[C@@H](Cc2ccccc2)C(=O)Nc2ccc(OC)cc2)CC1 [4-Ethoxy-1-mercaptomethyl-cyclohexanecarboxylic acid [(S)-1-(4-methoxy-phenylcarbamoyl)-2-phenyl-ethyl]-amide] | 39 nM
CCOc1ccc(C[C@H](NC(=O)[C@]2(CS)CC[C@H](OCC)CC2)C(=O)Nc2ccccc2)cc1 [4-Ethoxy-1-mercaptomethyl-cyclohexanecarboxylic acid [(S)-2-(4-ethoxy-phenyl)-1-phenylcarbamoyl-ethyl]-amide] | 139 nM
CCO[C@H]1CC[C@@](CS)(C(=O)N[C@@H](Cc2ccc(F)cc2)C(=O)Nc2ccccc2)CC1 [4-Ethoxy-1-mercaptomethyl-cyclohexanecarboxylic acid [(S)-2-(4-fluoro-phenyl)-1-phenylcarbamoyl-ethyl]-amide] | 134 nM
CCO[C@H]1CC[C@@](CS)(C(=O)N[C@@H](Cc2ccc(OC)cc2)C(=O)Nc2ccccc2)CC1 [4-Ethoxy-1-mercaptomethyl-cyclohexanecarboxylic acid [(S)-2-(4-methoxy-phenyl)-1-phenylcarbamoyl-ethyl]-amide] | 62 nM
CCO[C@H]1CC[C@@](CS)(C(=O)N[C@@H](Cc2ccccc2)C(=O)Nc2ccc(OC(F)(F)F)cc2)CC1 [4-Ethoxy-1-mercaptomethyl-cyclohexanecarboxylic acid [(S)-2-phenyl-1-(4-trifluoromethoxy-phenylcarbamoyl)-ethyl]-amide] | 175 nM
CCO[C@H]1CC[C@@](CS)(C(=O)N[C@@H](Cc2ccccc2)C(=O)Nc2ccccn2)CC1 [4-Ethoxy-1-mercaptomethyl-cyclohexanecarboxylic acid [(S)-2-phenyl-1-(pyridin-2-ylcarbamoyl)-ethyl]-amide] | 449 nM
CNC(=O)[C@H](Cc1ccccc1)NC(=O)[C@]1(CS)CC[C@H](C(C)(C)C)CC1 [4-tert-Butyl-1-mercaptomethyl-cyclohexanecarboxylic acid ((S)-1-methylcarbamoyl-2-phenyl-ethyl)-amide] | > 10000 nM
CNC(=O)[C@H](Cc1ccccc1)NC(=O)[C@@]1(CS)CCCC(OC)C1 (stereo partly drawn) [(R)-1-Mercaptomethyl-3-methoxy-cyclohexanecarboxylic acid ((S)-1-methylcarbamoyl-2-phenyl-ethyl)-amide] | > 10000 nM
